Columns and labels:
[1] = Cookie comprising metformin consumed by human volunteers; blood samples; format: in vivo; settings: one cookie (250 mg metformin); for concentration at 1 h / concentration at 2 h / concentration at 4 h / concentration at 0 h: human, blood, oral, 250 mg, empty stomach; for concentration at 1 h: 1 hr after consumption; for concentration at 2 h: 2 hrs after consumption; for concentration at 4 h: 4 hrs after consumption; for concentration at 0 h: before consumption
Description: A cookie dough was prepared comprising 1000 mg fine-ground metformin per 100 g conventional cookie dough, by mixing fine-ground metformin into the dough. 40 droplets of lemon juice per 100 g dough were added to the dough comprising the metformin, in order to neutralise the bitter taste of the metformin. Thereafter, the dough was divided in pieces of 25 g, from which pieces cookies were baked in a conventional way.
Human volunteers each consumed one cookie (providing 250 mg metformin) on an empty stomach. Blood samples were taken before consumption, 1 hour after consumption, 2 hours after consumption and 4 hours after consumption.

[2] = Clinical test: double-blind trial of yoghurt drink with added metformin, 6 weeks; settings: for Hyperinsulinaemia Internationale Unit / fasting glucose: change after 42 days
[3] = cited from earlier work
[4] = Stability test of metformin in yoghurt (pH and metformin content); format: physicochemical
Description: Yoghurt is prepared as described in Example 3. A batch comprising no metformin (placebo), a batch comprising 200 mg metformin per 100 gram (low dosage) and a batch comprising 360 mg metformin (high dosage) were made.
Part of the batches were stored in a fridge (about 4° C.), other parts at room temperature (about 20° C.). Product stability was determined by measuring pH and the metformin content (measured amount as a percentage of the added amount), weekly for a period of 35 days. […] Stability at room temperature was determined for only 35 days. Tables 6 and 7 show the measured amount of metformin in both products comprising metformin (relative to calculated amount=100%). No metformin was measured in the placebo.

[5] = up to 4 hours after consumption
[6] = Trial group I (n = 6), 250 mg metformin/day in yoghurt, after 42 days
[7] = Trial group I (n = 6), 250 mg metformin/day in yoghurt
[8] = Trial group II (n = 4), 450 mg metformin/day in yoghurt, after 42 days
[9] = Trial group II (n = 4), 450 mg metformin/day in yoghurt
[10] = subjects with the product of the invention, after 42 days

concentration at 1 h ([1]; subject 1): < 500 ng/mL
concentration at 2 h ([1]; subject 1): 700 ng/mL
concentration at 4 h ([1]; subject 1): 800 ng/mL
concentration at 0 h ([1]; subject 1): < 500 ng/mL
concentration at 1 h ([1]; subject 2): < 500 ng/mL
concentration at 2 h ([1]; subject 2): < 500 ng/mL
concentration at 4 h ([1]; subject 2): 600 ng/mL
concentration at 0 h ([1]; subject 2): < 500 ng/mL
concentration at 24 h ([2]; both, human, blood, oral): < 250 ng/mL
degradation of metformin in a fermented (acidic) product ([4]; 28 days (room temperature) or 35 days (refrigerator temperature)): no substantial degradation
storage stability in a nutritional product ([4]; metformin included in a nutritional product): at least 5 weeks
Structure (SMILES): CN(C)C(=N)NC(=N)N [metformin, N,N-dimethylimidodicarbonimidic diamide]
negative side-effects ([1]; during the experiment): no negative side-effects were observed
glucose levels in blood samples [1, 5]: no significant changes
lipid levels in blood samples [1, 5]: no significant changes
insulin resistance improvement (HOMA-2) [2, 6]: −0.13
side-effects: abdominal pain (number of subjects) [2, 6]: 0
side-effects: diarrhoea (number of subjects) [2, 6]: 0
side-effects: fatigue (number of subjects) [2, 6]: 0
side-effects: reflux (number of subjects) [2, 6]: 0
side-effects: stomach pain (number of subjects) [2, 6]: 1
side-effects: vertigo (number of subjects) [2, 6]: 0
Δ waist size [2, 6]: −2.0 cm
Δ weight [2, 6]: -1.9 kg
Hyperinsulinaemia Internationale Unit [2, 7]: −1.4 Internationale Unit
fasting glucose [2, 7]: -0.12 mmol/L
insulin resistance improvement (HOMA-2) [2, 8]: −3.9
side-effects: abdominal pain (number of subjects) [2, 8]: 0
side-effects: diarrhoea (number of subjects) [2, 8]: 0
side-effects: fatigue (number of subjects) [2, 8]: 0
side-effects: reflux (number of subjects) [2, 8]: 0
side-effects: stomach pain (number of subjects) [2, 8]: 0
side-effects: vertigo (number of subjects) [2, 8]: 0
Δ waist size [2, 8]: −3.1 cm
Δ weight [2, 8]: -1.9 kg
Hyperinsulinaemia Internationale Unit [2, 9]: −3.9 Internationale Unit
fasting glucose [2, 9]: -0.68 mmol/L
subjects indicating a reduced appetite ([2]; out of 10 subjects in the trial group (1 in the placebo group)): 4
reduction in waist size compared to the placebo [2, 10]: 2-3 fold
weight loss compared to the placebo [2, 10]: 3 fold
blood HDL concentration change ([2]; trial group I, after 42 days): No change
decrease in pulse ([2]; trial group I, after 42 days): −6
blood HDL concentration change ([2]; trial group II (450 mg metformin per day), after 42 days): +0.12
decrease in pulse ([2]; trial group II, after 42 days): −2
subjects with a reduction in B12 levels in blood ([3]; conventional dosage form such as a tablet): about 30%
subjects suffering from stomach complaints and diarrhoea ([3]; conventional pharmaceutical composition comprising biguanide (metformin)): roughly 30%

Source: US20150038589A1, “Nutritional Product Comprising a Biguanide” (priority 2011, published 2015)
